Values quoted from earlier work, collected in patent publication EP2143418A1, “Antiperspirant compositions” (Unilever PLC, priority 2008, dated 2010).

System: Staphylococcus epidermidis
Conditions: 80% or greater reduction in growth of inoculum, 16 to 24 hours at 37°C

| Compound | MIC |
| --- | --- |
| CCO [ethanol] | greater than 1 mg.ml^-1 |
| CC(C)=CCCC(C)=CCCC(C)=CCO [farnesol, 3,7,11-trimethyldodeca-2,6,10-trienol] | ca. 25 µg.ml^-1 |
| Oc1cc(Cl)ccc1Oc1ccc(Cl)cc1Cl [triclosan, 2',4,4'-trichloro,2-hydroxy-diphenyl ether] | 0.01 to 10 µg/mL |
